From patent US20170158807A1, “EPOXY RESIN COMPOSITION FOR ELECTRONIC MATERIAL, CURED PRODUCT THEREOF AND ELECTRONIC MEMBER” (DIC CORPORATION, priority 2014, published 2017) come the findings set out here.

A short description of data set [1]: Viscosity of the liquid epoxy resin. As to conditions: epoxy resin as obtained. The format is physicochemical. Here is the method: In a flask equipped with a thermometer, a dropping funnel, a condenser tube, and a stirrer, while being purged with nitrogen gas, 43 g of 2,4,4′-trihydroxybiphenyl, 295 g of epichlorohydrin, and 103 g of n-butanol were charged and dissolved. After the temperature was raised to 40° C., 53 g of a 48% by mass sodium hydroxide aqueous solution was added over 8 hours. The temperature was then further raised to 50° C., and the mixture was allowed to react for further 1 hour. After the completion of the reaction, 83 g of water was added, the mixture was allowed to stand, and then the lower layer was disposed. After that, unreacted epichlorohydrin was removed by distillation at 150° C. under reduced pressure. To the obtained crude epoxy resin, 118 g of methyl isobutyl ketone was added to dissolve the epoxy resin. To the solution, 67 g of a 10% by mass sodium hydroxide aqueous solution was further added, the mixture was allowed to react at 80° C. for 2 hours, and then washing with water was repeated three times until the pH of the washing liquid became neutral. Next, the system was dehydrated by azeotropic distillation, and subjected to microfiltration, followed by removing the solvent by distillation under reduced pressure, whereby 63 g of 2,4,4′-triglycidyloxybiphenyl (A-1) which was the target epoxy resin was obtained. […]

Data set [2] can be described thus: Melt viscosity at 150° C. (ASTM D4287, ICI viscometer method). The class given is physicochemical. As to conditions: measurement temperature 150° C. As for the experimental part: 1) Melt viscosity at 150° C.: measured by the following apparatus according to ASTM D4287.
Apparatus name: MODEL CV-1S manufactured by Codex

SMILES strings stand for the structures.

On to `c1cc(-c2ccc(OCC3CO3)cc2OCC2CO2)ccc1OCC1CO1` (stereo not shown) [Example A-1, 2,4,4′-triglycidyloxybiphenyl], for which the “viscosity of liquid form” value in data set [1] is 943 Pa-s. In data set [2], this molecule returned a melt viscosity of 0.14 dPa·s.
As for `c1cc(-c2cc(OCC3CO3)cc(OCC3CO3)c2)ccc1OCC1CO1` (stereo not shown) [Example A-2, 3,4′,5-triglycidyloxybiphenyl], the melt viscosity in data set [2] was found to be 0.27 dPa·s.
Still for that read-out and setting: the result for `c1c(OCC2CO2)cc(-c2cc(OCC3CO3)cc(OCC3CO3)c2)cc1OCC1CO1` (stereo not shown) [Example A-3, 3,3′,5,5′-tetraglycidyloxybiphenyl] reads 0.57 dPa·s.
